Patent US20200017496A1 (priority 2017, published 2020)
Read-outs that look alike come from different tables or passages of the source.

What was measured:
[1] = system: Enterobacter cloacae (ECL) isolates; test: MIC of compounds alone and combined with antibacterials, broth microdilution (CLSI); type: cell-based; conditions: for MIC: Enterobacter cloacae
Outline: (§1)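 Inoculum 5·10^5 CFU/mL (final), log phase, ca-MHB; 16-20 h, 35° C, ambient air. MIC = lowest conc. with no visible growth; ATB MIC read at each compound level.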

[2] = system: Klebsiella pneumoniae (KPN) isolates; test: as above; type: cell-based
Outline: as §1

C=CC1=C(C(=O)O)N2C(=O)[C@@H](NC(=O)/C(=N\OCC(=O)O)c3csc(N)n3)[C@H]2SC1 [FIX, Cefixime]
<=0.25 μg/mL: MIC ATB in combination ([1]; strain ECL UFR195, antibacterial combined with AF1 @ 8 μg/mL) | MIC ATB in combination ([2]; KPN 6299, AF1 @ 4 μg/mL) | MIC ATB in combination ([2]; KPN 6299, AF1 @ 8 μg/mL) | MIC ATB in combination ([2]; KPN 131119, AF1 @ 4 μg/mL) | MIC ATB in combination ([2]; KPN 131119, AF1 @ 8 μg/mL) | MIC ATB in combination ([2]; KPN 160143, AF1 @ 4 μg/mL) | MIC ATB in combination ([2]; KPN 160143, AF1 @ 8 μg/mL) | MIC ATB in combination ([2]; KPN 190128, AF1 @ 8 μg/mL) | MIC ATB in combination ([2]; KPN 190270, AF1 @ 8 μg/mL) | MIC ATB in combination ([2]; KPN 190425, AF1 @ 4 μg/mL) | MIC ATB in combination ([2]; KPN 190425, AF1 @ 8 μg/mL) | MIC ATB in combination ([2]; KPN 190551, AF1 @ 4 μg/mL) | MIC ATB in combination ([2]; KPN 190551, AF1 @ 8 μg/mL) | MIC ATB in combination ([2]; KPN 200047, AF1 @ 4 μg/mL) | MIC ATB in combination ([2]; KPN 200047, AF1 @ 8 μg/mL) | MIC ATB in combination ([2]; KPN 200327, AF1 @ 4 μg/mL) | MIC ATB in combination ([2]; KPN 200327, AF1 @ 8 μg/mL) | MIC ATB in combination ([2]; KPN 260251, AF1 @ 4 μg/mL) | MIC ATB in combination ([2]; KPN 260376, AF1 @ 4 μg/mL) | MIC ATB in combination ([2]; KPN 260376, AF1 @ 8 μg/mL) | MIC ATB in combination ([2]; KPN 270077, AF1 @ 8 μg/mL) | MIC ATB in combination ([2]; KPN 700603, AF1 @ 4 μg/mL) | MIC ATB in combination ([2]; KPN 700603, AF1 @ 8 μg/mL) | MIC ATB in combination ([2]; KPN ARA, AF1 @ 4 μg/mL) | MIC ATB in combination ([2]; KPN ARA, AF1 @ 8 μg/mL) | MIC ATB in combination ([2]; KPN BAA-1898, AF1 @ 4 μg/mL) | MIC ATB in combination ([2]; KPN BAA-1898, AF1 @ 8 μg/mL) | MIC ATB in combination ([2]; KPN LIB, AF1 @ 4 μg/mL) | MIC ATB in combination ([2]; KPN LIB, AF1 @ 8 μg/mL) | MIC ATB in combination ([2]; KPN UFR22_O, AF1 @ 4 μg/mL) | MIC ATB in combination ([2]; KPN UFR22_O, AF1 @ 8 μg/mL) | MIC ATB in combination ([2]; KPN UFR23, AF1 @ 4 μg/mL) | MIC ATB in combination ([2]; KPN UFR23, AF1 @ 8 μg/mL) | MIC ATB in combination ([2]; KPN UFR25, AF1 @ 4 μg/mL) | MIC ATB in combination ([2]; KPN UFR25, AF1 @ 8 μg/mL)
8 µg/mL: MIC ([1]; strain ECL UFR12 (CTX-M-9, OXA-48), CLA @ 4 μg/ml+ ATB) | MIC ([1]; strain ECL UFR194 (OXA-48), CLA @ 4 μg/ml+ ATB) | MIC ATB in combination ([2]; KPN 260252, AF1 @ 4 μg/mL)
64 µg/mL: MIC ([1]; strain ECL 260253 (TEM-1, KPC-3), CLA @ 4 μg/ml+ ATB, read-out: MIC) | MIC ATB in combination ([1]; strain ECL UFR198, antibacterial combined with AF1 @ 4 μg/mL) | MIC ATB in combination ([1]; strain ECL UFR198, antibacterial combined with AF1 @ 8 μg/mL)
1 µg/mL: MIC ATB in combination ([1]; strain ECL UFR197, antibacterial combined with AF1 @ 8 μg/mL)
0.5 µg/mL: MIC ATB in combination ([2]; KPN 140513, AF1 @ 8 μg/mL) | MIC ATB in combination ([2]; KPN 190128, AF1 @ 4 μg/mL) | MIC ATB in combination ([2]; KPN 190270, AF1 @ 4 μg/mL) | MIC ATB in combination ([2]; KPN 260251, AF1 @ 8 μg/mL) | MIC ATB in combination ([2]; KPN 270077, AF1 @ 4 μg/mL) | MIC ATB in combination ([2]; KPN UFR24, AF1 @ 4 μg/mL) | MIC ATB in combination ([2]; KPN UFR24, AF1 @ 8 μg/mL)
16 µg/mL: MIC ([1]; strain ECL UFR12 (CTX-M-9, OXA-48), ATB alone) | MIC ([1]; strain ECL UFR200 (TEM-1, SHV-12, KPC-2), CLA @ 4 μg/ml+ ATB) | MIC ATB in combination ([1]; strain ECL UFR196, antibacterial combined with AF1 @ 4 μg/mL) | MIC ATB in combination ([1]; strain ECL UFR197, antibacterial combined with AF1 @ 4 μg/mL)
128 µg/mL: MIC ([1]; strain ECL UFR13 (TEM-1, SHV-12, CTX-M-9, OXA-48), CLA @ 4 μg/ml+ ATB, read-out: MIC) | MIC ([1]; strain ECL UFR60 (TEM-1, CTX-M-15, KPC-2), CLA @ 4 μg/ml+ ATB, read-out: MIC)
4 µg/mL: MIC ([1]; strain ECL UFR194 (OXA-48), ATB alone) | MIC ATB in combination ([1]; strain ECL UFR195, antibacterial combined with AF1 @ 4 μg/mL) | MIC ATB in combination ([1]; strain ECL UFR196, antibacterial combined with AF1 @ 8 μg/mL) | MIC ATB in combination ([2]; KPN 140513, AF1 @ 4 μg/mL) | MIC ATB in combination ([2]; KPN 260252, AF1 @ 8 μg/mL)
32 µg/mL: MIC ([1]; strain ECL 260508 (TEM-1, CTX-M-15), CLA @ 4 μg/ml+ ATB)
0.125 µg/mL: MIC ATB in combination ([2]; KPN 110376, AF1 @ 4 μg/mL) | MIC ATB in combination ([2]; KPN 110376, AF1 @ 8 μg/mL)
> 128 µg/mL: MIC ([1]; strain ECL 200322 (TEM-1, CTX-M-15, OXA-1), ATB alone) | MIC ([1]; strain ECL 260033 (AmpC), ATB alone) | MIC ([1]; strain ECL 260033 (AmpC), CLA @ 4 μg/ml+ ATB) | MIC ([1]; strain ECL 260253 (TEM-1, KPC-3), ATB alone) | MIC ([1]; strain ECL 260323 (AmpC), ATB alone) | MIC ([1]; strain ECL 260323 (AmpC), CLA @ 4 μg/ml+ ATB) | MIC ([1]; strain ECL 260508 (TEM-1, CTX-M-15), ATB alone) | MIC ([1]; strain ECL NEM146383 (AmpC), ATB alone) | MIC ([1]; strain ECL NEM146383 (AmpC), CLA @ 4 μg/ml+ ATB) | MIC ([1]; strain ECL P99 (AmpC), ATB alone) | MIC ([1]; strain ECL P99 (AmpC), CLA @ 4 μg/ml+ ATB) | MIC ([1]; strain ECL UFR13 (TEM-1, SHV-12, CTX-M-9, OXA-48), ATB alone) | MIC ([1]; strain ECL UFR14 (TEM-1, SHV-12, CTX-M-15, DHA-1, OXA-1, OXA-48), ATB alone) | MIC ([1]; strain ECL UFR14 (TEM-1, SHV-12, CTX-M-15, DHA-1, OXA-1, OXA-48), CLA @ 4 μg/ml+ ATB) | MIC ([1]; strain ECL UFR60 (TEM-1, CTX-M-15, KPC-2), ATB alone) | MIC ([1]; strain ECL UFR70 (TEM-1, CTX-M-15, CMY-2, OXA-1, Porin loss), ATB alone) | MIC ([1]; strain ECL UFR70 (TEM-1, CTX-M-15, CMY-2, OXA-1, Porin loss), CLA @ 4 μg/ml+ ATB) | MIC ([1]; strain ECL UFR84 (TEM-1, AmpC, OXA-1), ATB alone) | MIC ([1]; strain ECL UFR84 (TEM-1, AmpC, OXA-1), CLA @ 4 μg/ml+ ATB) | MIC ([1]; strain ECL UFR85 (TEM-1, CTX-M-15, AmpC), ATB alone) | MIC ([1]; strain ECL UFR85 (TEM-1, CTX-M-15, AmpC), CLA @ 4 μg/ml+ ATB) | MIC ([1]; strain ECL UFR195 (TEM-1, CTX-M-15, OXA-1, OXA-48), ATB alone) | MIC ([1]; strain ECL UFR195 (TEM-1, CTX-M-15, OXA-1, OXA-48), CLA @ 4 μg/ml+ ATB) | MIC ([1]; strain ECL UFR196 (TEM-1, CTX-M-15, OXA-1, OXA-48), ATB alone) | MIC ([1]; strain ECL UFR196 (TEM-1, CTX-M-15, OXA-1, OXA-48), CLA @ 4 μg/ml+ ATB) | MIC ([1]; strain ECL UFR200 (TEM-1, SHV-12, KPC-2), ATB alone)
>128 µg/mL: MIC ATB in combination [2]
